Here are results for 36 molecules from the SangsterLogP compilation.

One data set can be described thus: method code SF, from DOI: 10.1515/znb-1972-0211, PMID: 4401834. The conditions noted are these: pH 7.0.
As usually defined, the logD is lipophilicity at a set pH, counting ionised and neutral species. A low value points to a more hydrophilic compound. `COC(=O)/C(C#N)=N\Nc1cc(Cl)c(Cl)cc1Cl` displayed a logD of 5.15.

A further data set can be described thus: method code SF-AS, from DOI: 10.1515/znb-1972-0211, PMID: 4401834. The settings on record: pH 7.0.
Turning to `CC(=O)C(C#N)=NNc1ccc(Cl)cc1C`, the logD came out at 4.28.
On the same count and under the same terms, then `COC(=O)/C(C#N)=N\Nc1cc(Cl)c(Cl)c(Cl)c1`, with 5.22; and `CC(=O)C(C#N)=NNc1cccc(Cl)c1`, with 3.91; and `CC(=O)C(C#N)=NNc1cc(Cl)cc(Cl)c1`, with 4.68.
Still for that read-out and setting: the result for `CC(C)(C)C(=O)C(C#N)=NNc1ccc(Cl)cc1C(F)(F)F` reads 5.67; that for `Cc1cc(Cl)ccc1NN=C(C#N)C(=O)C(C)(C)C`, 4.31.
The same measure, in the same setting: then `CCOC(=O)/C(C#N)=N\Nc1cc(Cl)cc(Cl)c1`, with 3.82; and `CCOC(=O)/C(C#N)=N\Nc1ccc(Cl)c(C(F)(F)F)c1`, with 4.86.
`COC(=O)C(C#N)=NNc1ccccc1` had a logD of 2.59.
The same measure, in the same setting: the result for `CCOC(=O)C(C#N)=NNc1cc(Cl)c(Cl)c(Cl)c1` reads 5.03.
On the same count and under the same terms, then `COC(=O)/C(C#N)=N\Nc1cc(Cl)cc(Cl)c1`, with 4.5.
Same read-out and setting: the result for `CCOC(=O)/C(C#N)=N\Nc1cc(Cl)c(Cl)cc1Cl` reads 5.21; that for `CC(=O)C(C#N)=NNc1ccc(SC(F)(F)F)cc1`, 5.04; that for `COC(=O)C(C#N)=NNc1cc(C(F)(F)F)ccc1Cl`, 4.42.
In turn, `COC(=O)/C(C#N)=N\Nc1cccc(Cl)c1` showed a logD of 3.56.
Still for that read-out and setting: then `CC(C)(C)C(=O)C(C#N)=NNc1cc(C(F)(F)F)cc(C(F)(F)F)c1`, with 5.44; and `COC(=O)C(C#N)=NNc1ccc(C(F)(F)F)cc1`, with 3.79.
`CC(=O)C(C#N)=NNc1ccccc1Cl` registered a logD of 4.01.
On the same count and under the same terms, then `COC(=O)C(C#N)=NNc1ccc(S(=O)(=O)C(F)(F)F)cc1`, with 4.22; and `CCOC(=O)C(C#N)=NNc1ccccc1Cl`, with 3.38.
Still for that read-out and setting: the result for `COC(=O)/C(C#N)=N\Nc1ccc(SC(F)(F)F)cc1` reads 4.27; that for `CCOC(=O)/C(C#N)=N\Nc1cccc(Cl)c1`, 3.94; that for `COC(=O)C(C#N)=NNc1ccc2c(c1)OC(F)(F)C(F)(F)O2`, 4.86.
`CCS(=O)(=O)c1ccc(C(F)(F)F)cc1NN=C(C#N)C(C)=O` showed a logD of 4.22.
With `CCOC(=O)C(C#N)=NNc1cc(C(F)(F)F)ccc1Cl`, the logD came out at 4.45.
Still for that read-out and setting: then `COC(=O)C(C#N)=NNc1ccccc1C(F)(F)F`, with 3.72.
Still for that read-out and setting: then `CC(C)(C)C(=O)C(C#N)=NNc1ccc2c(c1)OC(F)(F)C(F)(F)O2`, with 4.96.
Still for that read-out and setting: the result for `COC(=O)C(C#N)=NNc1cc(C#N)ccc1C#N` reads 2.81; that for `COC(=O)C(C#N)=NNc1cccc(C(F)(F)F)c1`, 3.78.
`CC(C)(C)C(=O)C(C#N)=NNc1cc(Cl)c(Cl)cc1Cl` came in with a logD of 5.86.
On the same count and under the same terms, then `CC(=O)C(C#N)=NNc1ccc(Cl)c(Cl)c1`, with 4.56; and `COC(=O)/C(C#N)=N\Nc1cc(C(F)(F)F)cc(C(F)(F)F)c1`, with 5.02; and `CC(=O)C(C#N)=NNc1ccc(Cl)cc1`, with 4.13.
Same read-out and setting: then `CC(C)(C)C(=O)C(C#N)=NNc1cccc(Cl)c1`, with 4.62.
`CC(=O)C(C#N)=NNc1ccc2c(c1)OC(F)(F)C(F)(F)O2`: the log distribution coefficient (logD) was 5.31.
